Reference: patent US6271238A, “Acetamide derivatives and protease inhibitors” (Nippon Kayaku Kabushiki Kaisha, priority 1996, dated 2001)
Where a name gives a salt, the structure may show the parent alone.

Columns and labels:
[1] = biological target: T1, Human factor Xa (Homo sapiens, UniProt P00742); test: Inhibitory activity on proteases other than chymase: human factor Xa; format: biochemical
T1 construct: human factor Xa
Experimental: (§1) (E) Measurement of inhibitory activity on proteases other than chymase
(§2) The inhibitory activity of the present compounds on human elastase, human cathepsin G, human urokinase, human thrombin, human plasmin, and human factor Xa was determined using their corresponding synthetic substrates in the same manner as for chymase. All the above proteases were those commercially available from Boehringer Mannheim or purified by a combination of known methods. The synthetic substrates were those produced by Peptide Renkyusho. The synthetic substrates for the respective proteases are as follows.
Human factor Xa Phenylmethyloxycarbonyl pyridyl glycyl arginyl
(§3) The test was conducted several times. Chymase was prepared for each test in the manner described above. The compounds examined were compounds prepared in the above-described examples.

[2] = biological target: T2, Human plasmin (Homo sapiens, UniProt P00747); test: Inhibitory activity on proteases other than chymase: human plasmin; format: biochemical; settings: benzyloxycarbonyl valyl leucyl lyzyl methylcoumarylamide substrate; read-out: 50% Inhibitory concentration toward Human plasmin
T2 construct: human plasmin
T2 sequence (P00747 581-810 limits assumed): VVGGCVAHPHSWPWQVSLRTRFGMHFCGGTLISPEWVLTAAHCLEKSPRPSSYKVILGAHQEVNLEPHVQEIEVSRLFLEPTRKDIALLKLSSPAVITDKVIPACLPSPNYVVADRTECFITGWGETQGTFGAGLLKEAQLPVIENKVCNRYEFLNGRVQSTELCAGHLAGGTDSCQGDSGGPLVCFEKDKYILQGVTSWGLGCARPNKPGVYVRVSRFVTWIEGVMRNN
T2 sequence (P00747 97-580 partner limits assumed): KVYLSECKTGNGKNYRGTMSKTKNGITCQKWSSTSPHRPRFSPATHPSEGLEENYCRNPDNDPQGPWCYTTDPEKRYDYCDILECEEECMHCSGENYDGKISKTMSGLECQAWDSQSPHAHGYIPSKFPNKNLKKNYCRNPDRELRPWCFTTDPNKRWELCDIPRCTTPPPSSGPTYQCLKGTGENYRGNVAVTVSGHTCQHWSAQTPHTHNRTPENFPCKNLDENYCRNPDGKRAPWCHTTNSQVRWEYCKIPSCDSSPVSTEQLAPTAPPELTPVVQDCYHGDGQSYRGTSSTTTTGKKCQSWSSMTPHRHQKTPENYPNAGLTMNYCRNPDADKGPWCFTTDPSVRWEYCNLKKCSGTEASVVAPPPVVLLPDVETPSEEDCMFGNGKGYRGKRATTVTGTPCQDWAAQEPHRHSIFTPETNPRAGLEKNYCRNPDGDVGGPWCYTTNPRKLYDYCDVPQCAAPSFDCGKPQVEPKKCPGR
Experimental: as §1, §2
Human plasmin Benzyloxycarbonyl valyl leucyl lyzyl
as §3

[3] = biological target: T3, Human thrombin (Homo sapiens, UniProt P00734); test: Inhibitory activity on proteases other than chymase: human thrombin; format: biochemical
T3 construct: human thrombin
Experimental: as §1, §2
Human thrombin Benzyloxycarbonyl asparginyl prolyl arginyl
as §3

[4] = biological target: T4, Human elastase (Homo sapiens, UniProt P08246); test: Inhibitory activity on proteases other than chymase: human elastase; format: biochemical; settings: succinyl alanyl propyl alanyl methylcoumarylamide substrate; read-out: 50% Inhibitory concentration toward Human elastase
T4 sequence (P08246 30-247 limits assumed): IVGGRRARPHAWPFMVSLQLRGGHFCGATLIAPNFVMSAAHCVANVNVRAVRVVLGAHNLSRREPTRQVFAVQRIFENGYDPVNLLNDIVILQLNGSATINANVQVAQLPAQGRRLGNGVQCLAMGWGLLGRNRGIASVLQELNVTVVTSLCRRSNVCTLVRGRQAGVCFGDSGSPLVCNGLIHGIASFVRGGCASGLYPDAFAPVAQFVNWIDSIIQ
Experimental: as §1, §2
Human elastase Succinyl alanyl propyl alanyl methylcoumarylamide
as §3

[5] = test system: other human proteases; test: Inhibitory activity on other human proteases (summary); format: biochemical
Experimental: as §1, §2, §3

[6] = biological target: T5, dog chymase (Canis lupus familiaris, UniProt P21842); test: Inhibitory activity on dog chymase (angiotensin I as substrate); format: biochemical; settings: pH 8.0, 37° C., 60 min, read-out: Dog Chymase (IC50: nM), 50% inhibitory concentration
T5 construct: 60 g dog heart was finely divided by scissors and a scalpel; from tissue; host or cells: dog heart
T5 sequence (P21842 22-249): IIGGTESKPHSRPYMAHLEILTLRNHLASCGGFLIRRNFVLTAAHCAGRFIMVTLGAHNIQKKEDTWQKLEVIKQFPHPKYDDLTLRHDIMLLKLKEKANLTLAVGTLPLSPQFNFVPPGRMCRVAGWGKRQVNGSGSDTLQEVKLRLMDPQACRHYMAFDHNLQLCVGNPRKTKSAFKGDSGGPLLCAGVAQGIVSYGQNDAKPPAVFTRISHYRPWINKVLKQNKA
Description: It is known that chymase is present in tissues of various animals, and its isolation and purification methods are described in Anal. Biochem., 137, 449 (1984) and FEBS Letters, 323, 119 (1993). In the present invention, chymase was purified by the methods described in these literatures, and the present compounds were examined for inhibitory activity on chymase, inhibitory action on activation of mast cells and eosinophils, and pharmacological action in animals. Hereinafter, specific methods are described. (c) Preparation of dog chymase 60 g dog heart was finely divided by scissors and a scalpel, suspended in 0.1 M phosphate buffer (pH 8.0), and disrupted by a Polytron homogenizer for 5 minutes to prepare a crude chymase enzyme solution. It was centrifuged at 22000×g for 15 minutes, and the precipitates were used as a chymase enzyme fraction. […] An active fraction decomposing the synthetic chymase substrate was recovered and concentrated and this product was used as a purified dog chymase in the following activity measurement. (D) Measurement of inhibitory activity on chymase (b) Measurement using angiotensin I as substrate The inhibitory activity on the human chymase and dog chymase was measured using angiotensin I (Peptide Kenkyusho) as substrate besides the above synthetic substrate. […] After the end of the reaction, produced angiotensin II was immediately measured by high performance liquid chromatography to determine the activity of the chymase to calculate 50% inhibitory concentration (IC50: nM). The test was conducted several times. Chymase was prepared for each test in the manner described above. The compounds examined were compounds prepared in the above-described examples. […] 50% Inhibitory concentration (IC50: nM) of each compound toward rat chymase, dog […] human […] Substrate: Succinyl leucyl leucyl valyl tyrosyl methylcoumarylamide (for rat […] angiotensin I (for human and dog chymase)

[7] = test system: rat mast cells; test: Inhibitory action on degranulation of mast cells (histamine release from rat mast cells); format: cell-based; settings: Mast cell; rat peritoneal mast cells, anti-IgE antibody, 37° C.
Experimental: Inhibitory action on degranulation of mast cells
(A) Preparation of mast cells
30 ml of mast cell buffer solution (150 mM sodium chloride, 3.7 mM potassium chloride, 3.0 mM disodium hydrogen phosphate, 3.5 mM sodium dihydrogen phosphate, 5.6 mM dextrose, pH 7.0) was injected into the abdomen of a rat(SD, male, 8 to 10 week-old), and intra peritoneal cavity cells were recovered and centrifuged at 800 rpm for 5 minutes, and then the abdomen infiltration cells were recovered as precipitates. The precipitated cells were further washed twice with the mast cell buffer solution, suspended again at a predetermined density, and used in the objective experiment.
(B) Inhibitory action on degranulation of mast cells (inhibitory action on histamine release from rat mast cells)
The mast cells obtained in the procedure in (A) above were suspended at 1×10^5 cells in the mast cell buffer solution and kept at 37° C. 2 μl of each drug and 200 μl of the cell suspension were added into a 1.5 ml test tube previously kept at 37° C. and incubated at 37° C. for 10 minutes. After incubation, 2 μl anti-IgE antibody (BETHYL Lab. Inc.) was added to it and further incubated at 37° C. for 15 minutes. After the end of the reaction, the reaction mixture was immediately cooled on ice and centrifuged at 4° C. at 4000 rpm for 5 minutes, and then the supernatant was stored. Histamine in the supernatant was modified with ortho-phthalaldehyde and measured by high performance liquid chromatography to determine 50% inhibitory concentration (IC50: μM).

T1 sequence (P00742 235-488 limits assumed): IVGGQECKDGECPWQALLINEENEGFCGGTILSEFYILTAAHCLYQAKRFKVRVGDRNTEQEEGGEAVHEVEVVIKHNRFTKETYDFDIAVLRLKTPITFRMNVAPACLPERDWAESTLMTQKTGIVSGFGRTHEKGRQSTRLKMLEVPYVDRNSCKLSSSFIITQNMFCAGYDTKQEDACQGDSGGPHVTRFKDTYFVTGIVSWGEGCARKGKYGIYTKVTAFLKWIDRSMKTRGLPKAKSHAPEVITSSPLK
T1 sequence (P00742 41-179 partner limits assumed): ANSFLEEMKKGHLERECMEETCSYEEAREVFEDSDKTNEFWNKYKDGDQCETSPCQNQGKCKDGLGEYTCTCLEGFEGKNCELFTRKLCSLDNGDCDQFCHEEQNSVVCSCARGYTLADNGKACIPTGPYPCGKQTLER

CC(=O)Nc1cnc(-c2ccccc2)n(CC(=O)NC(Cc2ccccc2)C(=O)C(=O)CCCOc2ccccn2)c1=O (stereo not shown) [Compound 80, 2-(5-Acetylamino-6-oxo-2-phenyl-1,6-dihydropyrimidine1-yl)-N-{2,3-dioxo-1-phenylmethyl-6-(-2-pyridyloxy)}hexyl-acetamide] showed an IC50 [1] of over 10 µM, an IC50 [2] of over 10 µM and an IC50 [3] of over 10 µM. The IC50 [4] was 2.1 µM, the “inhibitory activity on other human proteases, in words” value (from here on “inhibitory activity”) [5] was “no inhibitory activity on other human proteases” and the IC50 [6] was 0.35 nM.
For Nc1cnc(-c2ccccc2)n(CC(=O)NC(Cc2ccccc2)C(=O)C(=O)CCCn2ccccc2=O)c1=O (stereo not shown) [Compound 73, 2-(5-Amino-6-oxo-2-phenyl-1,6-dihydropyrimidine-1-yl)-N-{2,3-dioxo-1-phenylmethyl-6-(2-oxo-1,2-dihydropyridine-1-yl)}hexylacetamide hydrochloride], the “inhibitory activity” value [5] was “no inhibitory activity on other human proteases” and the IC50 [6] was 2.9 nM.
In the case of O=CNc1cnc(-c2ccccc2)n(CC(=O)NC(Cc2ccccc2)C(=O)C(=O)CCCOc2ccccn2)c1=O (stereo not shown) [Compound 79, 2-(5-Formylamino-6-oxo-2-phenyl-1,6-dihydropyrimidine-1-yl)-N-{2,3-dioxo-1-phenylmethyl-6-(2-pyridyloxy)}hexylacetamide], the IC50 [1] is reported as over 10 µM, the IC50 [2] is reported as over 10 µM and the IC50 [3] is reported as over 10 µM. The IC50 [4] was over 10 µM, the “inhibitory activity” value [5] was “no inhibitory activity on other human proteases” and the IC50 [6] was 0.32 nM.
In the case of O=C(Cn1c(-c2ccccc2)ncc(NS(=O)(=O)NCc2ccccc2)c1=O)NC(Cc1ccccc1)C(=O)C(=O)CCCOc1ccccn1 (stereo not shown) [Compound 82, 2-(5-Benzylaminosulfonylamino-6-oxo-2-phenyl-1,6-dihydropyrimidine-1-yl)-N-{2,3-dioxo-1-phenylmethyl-6-(2-pyridyloxy)}hexylacetamide], the IC50 [1] is reported as over 10 µM, the IC50 [2] is reported as over 10 µM and the IC50 [3] is reported as over 10 µM. For the same compound, the IC50 [4] was 4 µM, the “inhibitory activity” value [5] was “no inhibitory activity on other human proteases” and the IC50 [6] was 0.14 nM.
Compound CCCCC(=O)C(=O)C(Cc1ccccc1)NC(=O)Cn1c(-c2ccccc2)ncc(N)c1=O (stereo not shown) [Compound 44] has an IC50 [7] of 14 µM and an IC50 [6] of 16 nM.
CC(C)(C)OC(=O)Nc1cnc(-c2ccccc2)n(CC(=O)NC(Cc2ccccc2)C(=O)C(=O)CCCOc2ccccn2)c1=O (stereo not shown) [Compound 74, 2-(5-t-Butyloxycarbonylamino-6-oxo-2-phenyl-1,6-dihydropyrimidine-1-yl)-N-{2,3-dioxo-6-(2-pyridyloxy)-1-phenylmethyl}hexylacetamide] gave an IC50 [1] of over 10 µM, an IC50 [2] of over 10 µM and an IC50 [3] of over 10 µM. For the same compound, the IC50 [4] was 6 µM, the “inhibitory activity” value [5] was “no inhibitory activity on other human proteases” and the IC50 [6] was 0.92 nM.
For CCOC(=O)CCCC(=O)C(=O)C(Cc1cccc(F)c1)NC(=O)Cn1c(-c2ccccc2)ncc(N)c1=O (stereo not shown) [Compound 54], the “inhibitory activity” value [5] was “no inhibitory activity on other human proteases”, the IC50 [7] was 35 µM and the IC50 [6] was 3.6 nM.
Compound CC(C)(C)OC(=O)Nc1cnc(-c2ccccc2)n(CC(=O)NC(Cc2ccccc2)C(=O)C(=O)CCCn2ccccc2=O)c1=O (stereo not shown) [Compound 72, 2-(5-t-Butyloxycarbonylamino-6-oxo-2-phenyl-1,6-dihydropyrimidine-1-yl)-N-{2,3-dioxo-6-(2-oxo-1,2-dihydropyridine-1-yl)-1-phenylmethyl}hexylacetamide] has an IC50 [1] of over 10 µM, an IC50 [2] of over 10 µM and an IC50 [3] of over 10 µM. The IC50 [4] was 5.5 µM, the “inhibitory activity” value [5] was “no inhibitory activity on other human proteases” and the IC50 [6] was 1.6 nM.
In the case of Nc1cnc(-c2ccccc2)n(CC(=O)NC(Cc2ccccc2)C(=O)C(=O)CCCc2ccccc2)c1=O (stereo not shown) [Compound 40], the IC50 [1] is reported as over 10 µM, the IC50 [2] is reported as over 10 µM and the IC50 [3] is reported as over 10 µM. It also gave an IC50 [4] of 1.9 µM, an IC50 [7] of 1.8 µM and an IC50 [6] of 13 nM.
Compound CC(=O)C(=O)C(Cc1cccc(F)c1)NC(=O)Cn1c(-c2ccccc2)ncc(N)c1=O (stereo not shown) [Compound 52, 2-(5-Amino-6-oxo-2-phenyl-1,6-dihydropyrimidine-1-yl)-N-{1-(3-fluorophenyl)methyl-2,3-dioxo}butylacetamide] has an IC50 [1] of over 10 µM, an IC50 [2] of over 10 µM and an IC50 [3] of over 10 µM. It also gave an IC50 [4] of over 10 µM, an IC50 [7] of 50 µM and an IC50 [6] of 27 nM.
